Like-named read-outs stand apart in the source and are kept apart here.
Legend:
[1] = target: T1, human cathepsin K (Homo sapiens, UniProt P43235); assay: Assay of cathepsin K inhibitory activity in vitro; format: biochemical; conditions: IC50 against human cathepsin K; substrate Z-Phe-Arg-AMC 10 μM; 25° C.; read-out: Cat-K
T1 sequence (P43235 115-329): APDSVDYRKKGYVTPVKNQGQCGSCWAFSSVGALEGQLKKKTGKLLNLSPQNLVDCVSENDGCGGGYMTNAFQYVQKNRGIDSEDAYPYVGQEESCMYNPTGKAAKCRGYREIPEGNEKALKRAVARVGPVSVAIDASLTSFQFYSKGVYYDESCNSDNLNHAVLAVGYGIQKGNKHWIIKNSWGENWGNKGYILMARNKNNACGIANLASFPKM
Method: Assay Method of Cathepsin K Inhibitory Activity In Vitro
Using 45000-fold diluted cathepsin K solution and 10 μM Z-Phe-Arg-AMC as substrate, the test compound and cathepsin K solution were incubated at 25° C. for 15 min in a 15 μL reaction system according to the optimized experimental condition.

[2] = target: human cathepsin B (Homo sapiens, UniProt P07858); assay: Assay of cathepsin B inhibitory activity in vitro; format: biochemical; conditions: IC50 against human cathepsin B; substrate Z-Phe-Arg-AMC 10 μM; 25° C.; read-out: Cat-B
Method: Assay Method of Cathepsin B Inhibitory Activity In Vitro
0.01 ng/μL was the final concentration of Cathepsin B in the enzyme reaction, and Z-Phe-Arg-AMC with the final concentration of 10 μM was added into the reaction system as substrate, in the reaction system the test compound and enzyme had been incubated at 25° C. for 15 min.

[3] = target: human cathepsin S (Homo sapiens, UniProt P25774); assay: Assay of cathepsin S inhibitory activity in vitro; format: biochemical; conditions: IC50 against human cathepsin S; substrate Z-VVR-AMC 20 μM; 25° C.; read-out: Cat-S
Method: Assay Method of Cathepsin S Inhibitory Activity In Vitro
0.25 ng/L was the final concentration of Cathepsin S in the enzyme reaction, and Z-VVR-AMC with the final concentration of 20 μM was added into the reaction system as substrate, in the reaction system the test compound and enzyme had been incubated at 25° C. for 15 min.

[4] = Pharmacokinetic test in SD rats (iv and oral gavage), plasma by LC/MS/MS; format: in vivo; conditions: rat, male SD rats; for AUC(0-inf): read-out: AUCINF h * ng/ml; for AUC(0-t): read-out: AUClast h * ng/ml; for half-life: read-out: T1/2 h (converted); for Vd: read-out: Vss; for bioavailability: po 5 mg/kg vs iv 1 mg/kg
Method: Healthy adult male SD rats were divided into groups with administration of compound by intravenous injection and oral gavage.
2. Preparation of the Test Compound Solution:
A certain amount of the test compound was weighed, and then mixed with 5% DMSO, 10% Kolliphor HS15 and 85% Saline to prepare a clarified solution.
3. Administration and Sample Collection:
All groups were fasted for 12 hours before administering, free drinking, and fed at 3 hours after administration. Each group was administered with test compound by vein intravenous (iv, 1 mg/kg) in the hind foot and oral gavage (po, 5 mg/kg) independently. The blood samples were collected from tail vein at the time point of 0 h, 0.083 h, 0.25 h, 0.5 h, 1 h, 2 h, 4 h, 6 h, 8 h and 24 h after administration and the amount of blood sample collected at each time point was about 200-400 μL. The blood samples collected at each time point were independently placed in K2EDTA anticoagulation tube and preserved in the incubator containing ice packs. The plasma of each blood sample above was separated by centrifugation at 4600 r/min at 4° C. for 5 min in 15 minutes after collecting. The plasma samples were preserved at −80° C. for measuring.
The content of the compound in plasma of rat after administration was determined by LC/MS/MS method.

[5] = target: human cathepsin L (Homo sapiens, UniProt P07711); assay: Assay of cathepsin L inhibitory activity in vitro; format: biochemical; conditions: IC50 against human cathepsin L; substrate Z-Phe-Arg-AMC 10 μM; 25° C.; read-out: Cat-L
Method: Assay Method of Cathepsin L Inhibitory Activity In Vitro
0.01 ng/μL was the final concentration of Cathepsin L in the enzyme reaction, and Z-Phe-Arg-AMC with the final concentration of 10 μM was added into the reaction system as substrate, in the reaction system the test compound and enzyme had been incubated at 25° C. for 15 min.

Sequence of human cathepsin L (P07711 114-333): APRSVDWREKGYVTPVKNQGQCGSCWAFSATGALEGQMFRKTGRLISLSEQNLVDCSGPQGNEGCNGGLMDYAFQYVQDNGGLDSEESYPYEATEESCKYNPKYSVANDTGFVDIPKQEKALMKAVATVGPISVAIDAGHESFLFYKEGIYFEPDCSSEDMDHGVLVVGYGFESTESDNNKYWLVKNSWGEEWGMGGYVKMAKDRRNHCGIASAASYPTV
Sequence of human cathepsin S (P25774 115-331): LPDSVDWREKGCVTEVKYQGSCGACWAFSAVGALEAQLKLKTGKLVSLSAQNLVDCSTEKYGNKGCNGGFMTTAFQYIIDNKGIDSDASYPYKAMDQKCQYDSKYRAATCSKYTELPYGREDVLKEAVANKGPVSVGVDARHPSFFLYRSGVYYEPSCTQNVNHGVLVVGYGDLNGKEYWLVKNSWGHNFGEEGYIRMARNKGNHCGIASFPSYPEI

Row | SMILES | IC50 [1] [nM] | IC50 [2] [nM] | IC50 [3] [nM] | Cmax ([4]; iv 1 mg/kg) [ng/mL] | Tmax ([4]; iv 1 mg/kg) [h] | clearance ([4]; iv 1 mg/kg) [mL/min/kg] | AUC(0-inf) ([4]; iv 1 mg/kg) [ng·h/mL] | AUC(0-t) ([4]; iv 1 mg/kg) [ng·h/mL] | half-life ([4]; iv 1 mg/kg) [h] | Vd ([4]; iv 1 mg/kg) [L/kg] | Cmax ([4]; po 5 mg/kg) [ng/mL] | Tmax ([4]; po 5 mg/kg) [h] | bioavailability [4] [%] | AUC(0-inf) ([4]; po 5 mg/kg) [ng·h/mL] | AUC(0-t) ([4]; po 5 mg/kg) [ng·h/mL] | half-life ([4]; po 5 mg/kg) [h] | IC50 [5] [nM]
1 | N#CC1(NC(=O)C2(NC(=O)c3cc4ccc(-c5ccc(-n6cncn6)cc5)cc4o3)CCC(F)(F)CC2)CC1 [Example 12, 6-(4-(1H-1,2,4-triazol-1-yl)phenyl)-N-(1-((1-cyanocyclopropyl)carbamoyl)-4,4-difluorocyclohexyl)benzofuran-2-carboxamide] | 1.8 | 1400 | 2500 | 1110 | 0.08 | 1.8 | 9230 | 8150 | 7.84 | 1.09 | 1890 | 4.67 | 60.6 | 28400 | 25100 | 6.14 | > 10000
2 | CCOc1cc(-c2ccc3cc(C(=O)NC4(C(=O)NC5(C#N)CC5)CCC(F)(F)CC4)oc3c2)ccc1-n1cncn1 [Example 54, N-(1-((1-cyanocyclopropyl)carbamoyl)-4,4-difluorocyclohexyl)-6-(3-ethoxy-4-(1H-1,2,4-triazol-1-yl)phenyl)benzofuran-2-carboxamide] | 1.3 | 5000 | > 10000 | 1240 | 0.33 | 1.73 | 9700 | 9280 | 5.59 | 0.69 | 2260 | 3 | 46.9 | 22700 | 21900 | 5.06 | > 10000
3 | N#CC1(NC(=O)C2(NC(=O)c3cc4ccc(-c5ccc(-n6ccnn6)cc5)cc4o3)CCC(F)(F)CC2)CC1 [Example 18, 6-(4-(1H-1,2,3-triazol-1-yl)phenyl)-N-(1-((1-cyanocyclopropyl)carbamoyl)-4,4-difluorocyclohexyl)benzofuran-2-carboxamide] | 2.2 | 806 | 2800 | 500 | 0.083 | 5.14 | 3320 | 3210 | 4.72 | 1.92 | 1380 | 3.33 | 98.6 | 19900 | 18600 | 5.65 | > 10000
4 | N#CC1(NC(=O)C2(NC(=O)c3cc4ccc(-c5ccc(C(O)C6(O)CC6)cc5)cc4o3)CCC(F)(F)CC2)CC1 (centres unmarked) [Example 15, N-(1-((1-cyanocyclopropyl)carbamoyl)-4,4-difluorocyclohexyl)-6-(4-(hydroxy(1-hydroxycyclopropyl)methyl)phenyl)benzofuran-2-carboxamide] | 3.1 | 750 | 620 |  |  |  |  |  |  |  |  |  |  |  |  |  | > 10000
5 | CS(=O)(=O)c1ccc(-c2ccc3cc(C(=O)NC4(C(=O)NC5(C#N)CC5)CCCC4)oc3c2)cc1 [Example 70] | 8.6 | 530 | 5060 |  |  |  |  |  |  |  |  |  |  |  |  |  | > 10000
6 | N#CC1(NC(=O)C2(NC(=O)c3cc4ccc(-c5ccc(C6(O)CCS(=O)(=O)CC6)cc5)cc4o3)CCC(F)(F)CC2)CC1 [Example 27, N-(1-((1-cyanocyclopropyl)carbamoyl)-4,4-difluorocyclohexyl)-6-(4-(4-hydroxy-1,1-dioxidotetrahydro-2H-thiopyran-4-yl)phenyl)benzofuran-2-carboxamide] | 0.83 | 2100 | 400 |  |  |  |  |  |  |  |  |  |  |  |  |  | > 10000
7 | N#CC1(NC(=O)C2(NC(=O)c3cc4ccc(-c5csc(N6CCNC6=O)n5)cc4o3)CCCCC2)CC1 [Example 65] | 1.3 | 697 | > 10000 |  |  |  |  |  |  |  |  |  |  |  |  |  | > 10000
8 | N#CC1(NC(=O)C2(NC(=O)c3cc4ccc(-c5ccc(-n6cncn6)cc5)cc4o3)CCCCC2)CC1 [Example 84] | 1.3 | 860 | 9700 |  |  |  |  |  |  |  |  |  |  |  |  |  | > 10000

— US10494364B2, “Cathepsin K inhibitors and application thereof” (SUNSHINE LAKE PHARMA CO., LTD., priority 2015, dated 2019)
